This test has as its system Enterococcus faecalis. Put plainly: Antimicrobial activity against vancomycin-resistant Enterococcus faecalis NCTC12201 after 8 hrs.

SMILES strings stand for the structures.

On to `Nc1c(O)cccc1C(=O)C[C@H](N)C(=O)O`, for which the IC50 came out at 30 µM.

For the origin of these results see BindingDB's records for doi:10.1021/acsmedchemlett.7b00169 (2017).
